Experimental data published in patent publication US20260226068A1, “IMIDAZOTRIAZINE IL-17A MODULATORS AND USES THEREOF” (DICE ALPHA, INC., priority 2023, published 2026).
pIC50: −log10 of the molar value.

What was measured:
IL-17A/A = target: T1, IL-17A/A (Homo sapiens, UniProt Q16552); assay: IL-17A/A HEK-Blue cell assay (SEAP reporter); assay type: cell-based; details: HEK-Blue IL-17A reporter cells, IL17A/A 5 ng/mL, 20 hours, SEAP read at A630; read-out: HEK-Blue IL17AA (IC50 for IL-17A/A inhibition)
T1 construct: purchased Genscript Z03228
T1 sequence (Q16552 24-155): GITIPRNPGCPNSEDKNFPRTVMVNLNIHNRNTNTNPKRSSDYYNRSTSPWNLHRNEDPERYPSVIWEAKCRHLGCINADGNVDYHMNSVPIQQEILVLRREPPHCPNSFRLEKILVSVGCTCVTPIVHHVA

IL-17A/F = target: T2, IL-17A/F (Homo sapiens, UniProt Q16552+Q96PD4); assay: IL-17A/F HEK-Blue cell assay (SEAP reporter); assay type: cell-based; details: HEK-Blue IL-17A reporter cells, IL17A/F 5 ng/mL, 20 hours, SEAP read at A630; read-out: HEK-Blue IL17AF (IC50 for IL-17A/F inhibition)
T2 construct: purchased R&D Systems
T2 sequence (Q16552 24-155): T1 sequence (Q16552 24-155)
T2 sequence (Q96PD4 31-163): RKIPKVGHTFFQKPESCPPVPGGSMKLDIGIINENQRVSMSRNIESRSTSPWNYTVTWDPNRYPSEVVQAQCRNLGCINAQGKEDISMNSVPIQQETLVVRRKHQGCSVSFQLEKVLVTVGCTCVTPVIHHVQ

SMILES: CCn1nccc1C(=O)N[C@H](c1cn2nc(C[C@H]3C[C@@H](C(F)(F)F)CNC3=O)c(N3CCO[C@@H](C)C3)nc2n1)C1CCC(F)(F)CC1 [Compound 283, N—((S)-(4,4-difluorocyclohexyl)(3-((S)-2-methylmorpholino)-2-(((3R,5R)-2-oxo-5-(trifluoromethyl)piperidin-3-yl)methyl)imidazo[1,2-b][1,2,4]triazin-6-yl)methyl)-1-ethyl-1H-pyrazole-5-carboxamide]
- pIC50 (IL-17A/A): > 7.00
- pIC50 (IL-17A/F): 6.00 to 7.00

SMILES: CCn1nccc1C(=O)N[C@H](c1cn2nc(C[C@H]3C[C@@H](C(F)(F)F)CNC3=O)c([C@@H]3CCNC3)nc2n1)C1CCC(F)(F)CC1 [Compound 284, N-((1S)-(4,4-difluorocyclohexyl)(2-(((3R,5R)-2-oxo-5-(trifluoromethyl)piperidin-3-yl)methyl)-3-(pyrrolidin-3-yl)imidazo[1,2-b][1,2,4]triazin-6-yl)methyl)-1-ethyl-1H-pyrazole-5-carboxamide]
- pIC50 (IL-17A/A): 6.00 to 7.00
- pIC50 (IL-17A/F): < 6.00

SMILES: CCn1nccc1C(=O)N[C@H](c1cn2nc(C[C@H]3C[C@@H](C(F)(F)F)CNC3=O)c(CNC)nc2n1)C1CCC(F)(F)CC1 [Compound 286, N—((S)-(4,4-difluorocyclohexyl)(3-((methylamino)methyl)-2-(((3R,5R)-2-oxo-5-(trifluoromethyl)piperidin-3-yl)methyl)imidazo[1,2-b][1,2,4]triazin-6-yl)methyl)-1-ethyl-1H-pyrazole-5-carboxamide]
- pIC50 (IL-17A/A): 6.00 to 7.00
- pIC50 (IL-17A/F): < 6.00

SMILES: CCn1nccc1C(=O)N[C@H](c1cn2nc(C[C@H]3C[C@@H](C(F)(F)F)CNC3=O)c(CN(C)C)nc2n1)C1CCC(F)(F)CC1 [Compound 287, N—((S)-(4,4-difluorocyclohexyl)(3-((dimethylamino)methyl)-2-(((3R,5R)-2-oxo-5-(trifluoromethyl)piperidin-3-yl)methyl)imidazo[1,2-b][1,2,4]triazin-6-yl)methyl)-1-ethyl-1H-pyrazole-5-carboxamide]
- pIC50 (IL-17A/A): 6.00 to 7.00
- pIC50 (IL-17A/F): < 6.00

SMILES: CCn1nccc1C(=O)N[C@H](c1cn2nc(C[C@H]3C[C@@H](C(F)(F)F)CNC3=O)c(CN3CCCCC3)nc2n1)C1CCC(F)(F)CC1 [Compound 288, N—((S)-(4,4-difluorocyclohexyl)(2-(((3R,5R)-2-oxo-5-(trifluoromethyl)piperidin-3-yl)methyl)-3-(piperidin-1-ylmethyl)imidazo[1,2-b][1,2,4]triazin-6-yl)methyl)-1-ethyl-1H-pyrazole-5-carboxamide]
- pIC50 (IL-17A/A): > 7.00
- pIC50 (IL-17A/F): < 6.00

SMILES: CCn1nccc1C(=O)N[C@H](c1cn2nc(C[C@H]3C[C@@H](C(F)(F)F)CNC3=O)c(C3CCOCC3)nc2n1)C1CCCCCC1 [Compound 289, N—((S)-cycloheptyl(2-(((3R,5R)-2-oxo-5-(trifluoromethyl)piperidin-3-yl)methyl)-3-(tetrahydro-2H-pyran-4-yl)imidazo[1,2-b][1,2,4]triazin-6-yl)methyl)-1-ethyl-1H-pyrazole-5-carboxamide]
- pIC50 (IL-17A/A): > 7.00
- pIC50 (IL-17A/F): > 7.00

SMILES: Cn1nccc1C(=O)N[C@H](c1cn2nc(C[C@H]3C[C@@H](C(F)(F)F)CNC3=O)c(C3CCOCC3)nc2n1)C1CCCCCC1 [Compound 290, N—((S)-cycloheptyl(2-(((3R,5R)-2-oxo-5-(trifluoromethyl)piperidin-3-yl)methyl)-3-(tetrahydro-2H-pyran-4-yl)imidazo[1,2-b][1,2,4]triazin-6-yl)methyl)-1-methyl-1H-pyrazole-5-carboxamide]
- pIC50 (IL-17A/A): > 7.00
- pIC50 (IL-17A/F): > 7.00

SMILES: CCn1nccc1C(=O)N[C@H](c1cn2nc(C[C@H]3C[C@@H](C(F)(F)F)CNC3=O)c(C3CCOCC3)nc2n1)[C@H]1C[C@H]2C[C@H]2C1 [Compound 292, N—((S)-((1R,3r,5S)-bicyclo[3.1.0]hexan-3-yl)(2-(((3R,5R)-2-oxo-5-(trifluoromethyl)piperidin-3-yl)methyl)-3-(tetrahydro-2H-pyran-4-yl)imidazo[1,2-b][1,2,4]triazin-6-yl)methyl)-1-ethyl-1H-pyrazole-5-carboxamide]
- pIC50 (IL-17A/A): > 7.00
- pIC50 (IL-17A/F): < 6.00
